# Reference: patent publication US20160108049A1 (TAKEDA Gmbh, priority 2011, published 2016)
# Tests used:
# [1] = target: T1, PDE4B1 (Homo sapiens, UniProt Q07343); test: Inhibition of PDE4 activity (PDE4B1, SPA assay); type: biochemical; settings: recombinant PDE4B1, 0.5 μM cAMP; read-out: PDE4B1 Inhibitory values measured as -logIC50 (converted)
# T1 construct: made in house; host or cells: SF21 insect cells (baculovirus; virus made in SF9 cells, pCR-Bac vector)
# Summary of the method: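 Baculovirus-expressed enzyme from SF21 cell 1000×g supernatant; substrate 0.5 μM [3H]cAMP in 20 mM Tris pH 7.4, 5 mM Mg2+, 0.1 mg/ml BSA, 10-20% conversion. 5 min preincubation at 37 °C, 15 min reaction, stopped by SPA beads with IBMX; IC50 by non-linear regression.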
# [2] = target: T2, human PDE5 (Homo sapiens, UniProt O76074); test: Inhibition of PDE5 activity (platelet lysate, SPA assay); type: biochemical; settings: 0.5 μM cGMP, read-out: PDE5 Inhibitory values measured as -logIC50 (converted)
# T2 construct: from tissue; host or cells: human platelets from fresh donor blood (platelet lysate)
# Summary of the method: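 Human platelet lysate (10,000 g supernatant) served as PDE5 source, with 1 μM motapizone and 10 nM PDE2 inhibitor added, in Tris pH 7.4, 5 mM Mg2+, BSA. Substrate 0.5 μM [3H]cGMP, 10–20% conversion; 5 min preincubation then 15 min at 37 °C, stopped by SPA beads with IBMX. IC50 by non-linear regression.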
# T1 sequence (Q07343 whole entry): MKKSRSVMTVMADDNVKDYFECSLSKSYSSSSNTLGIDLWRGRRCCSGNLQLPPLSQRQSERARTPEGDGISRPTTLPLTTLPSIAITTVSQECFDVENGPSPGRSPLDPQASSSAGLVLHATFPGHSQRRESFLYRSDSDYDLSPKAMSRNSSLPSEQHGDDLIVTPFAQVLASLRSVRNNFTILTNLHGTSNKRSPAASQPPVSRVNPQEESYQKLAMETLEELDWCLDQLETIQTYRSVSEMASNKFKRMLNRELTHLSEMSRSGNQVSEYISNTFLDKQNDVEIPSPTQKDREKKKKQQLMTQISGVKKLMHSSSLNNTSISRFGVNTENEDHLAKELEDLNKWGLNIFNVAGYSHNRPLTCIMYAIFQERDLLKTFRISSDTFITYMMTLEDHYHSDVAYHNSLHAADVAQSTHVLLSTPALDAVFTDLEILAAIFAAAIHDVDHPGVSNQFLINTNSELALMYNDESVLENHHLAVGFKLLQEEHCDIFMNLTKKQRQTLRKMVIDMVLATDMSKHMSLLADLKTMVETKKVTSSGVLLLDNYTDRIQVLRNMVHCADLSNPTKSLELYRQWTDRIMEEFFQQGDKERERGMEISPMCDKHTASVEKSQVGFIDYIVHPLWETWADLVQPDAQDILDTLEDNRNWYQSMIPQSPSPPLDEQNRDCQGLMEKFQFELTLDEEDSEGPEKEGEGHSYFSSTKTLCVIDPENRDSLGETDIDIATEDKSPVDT
IC50 [1],IC50 [2],Structure (SMILES)
1 to 10 nM,< 1 nM,"COc1ccc(C[C@@H](NC(=O)c2c[nH]c3c(-c4c(OCC5CC5)ccc5c4OCO5)ncnc23)C(=O)N2CCC(N3N=C(c4ccc(OC)c(OC)c4)[C@H]4CCCC[C@H]4C3=O)CC2)cc1 [Example 29, 4-[5-(cyclopropylmethoxy)-1,3-benzodioxol-4-yl]-N-[(2R)-1-{4-[(4aS,8aR)-4-(3,4-dimethoxyphenyl)-1-oxo-4a,5,6,7,8,8a-hexahydrophthalazin-2(1H)-yl]piperidin-1-yl}-3-(4-methoxyphenyl)-1-oxopropan-2-yl]-5H-pyrrolo[3,2-d]pyrimidine-7-carboxamide]"
1 to 10 nM,< 1 nM,"COc1ccc(C2=NN(C3CCN(C(=O)[C@@H](Cc4ccccc4)NC(=O)c4c[nH]c5c(-c6c(OCC7CC7)ccc7c6OCO7)ncnc45)CC3)C(=O)[C@@H]3CCCC[C@H]23)cc1OC [Example 31, 4-[5-(cyclopropylmethoxy)-1,3-benzodioxol-4-yl]-N-[(2R)-1-{4-[(4aS,8aR)-4-(3,4-dimethoxyphenyl)-1-oxo-4a,5,6,7,8,8a-hexahydrophthalazin-2(1H)-yl]piperidin-1-yl}-1-oxo-3-phenylpropan-2-yl]-5H-pyrrolo[3,2-d]pyrimidine-7-carboxamide]"
1 to 10 nM,1 to 10 nM,"COc1cc(OCC2CC2)c(-c2ncnc3c(C(=O)N[C@H](Cc4ccccc4)C(=O)N4CCC(N5N=C(c6ccc(OC)c(OC)c6)CC(C)(C)C5=O)CC4)c[nH]c23)cc1F [Example 68, 4-[2-(cyclopropylmethoxy)-5-fluoro-4-methoxyphenyl]-N-[(2R)-1-{4-[3-(3,4-dimethoxyphenyl)-5,5-dimethyl-6-oxo-5,6-dihydropyridazin-1(4H)-yl]piperidin-1-yl}-1-oxo-3-phenylpropan-2-yl]-5H-pyrrolo[3,2-d]pyrimidine-7-carboxamide]"
< 1 nM,< 1 nM,"COc1ccc(C2=NN(C3CCN(C(=O)[C@@H](Cc4ccc(F)cc4)NC(=O)c4c[nH]c5c(-c6c(OCC7CC7)ccc7c6OCO7)ncnc45)CC3)C(=O)[C@@H]3CCCC[C@H]23)cc1OC [Example 28, 4-[5-(cyclopropylmethoxy)-1,3-benzodioxol-4-yl]-N-[(2R)-1-{4-[(4aS,8aR)-4-(3,4-dimethoxyphenyl)-1-oxo-4a,5,6,7,8,8a-hexahydrophthalazin-2(1H)-yl]piperidin-1-yl}-3-(4-fluorophenyl)-1-oxopropan-2-yl]-5H-pyrrolo[3,2-d]pyrimidine-7-carboxamide]"
1 to 10 nM,1 to 10 nM,"COc1cc(OCC2CC2)c(-c2ncnc3c(C(=O)N[C@H](Cc4ccccc4)C(=O)N4CCC(N5N=C(c6ccc(OC)c(OC)c6)[C@H]6CCCC[C@H]6C5=O)CC4)c[nH]c23)cc1F [Example 23, 4-[2-(cyclopropylmethoxy)-5-fluoro-4-methoxyphenyl]-N-[(2R)-1-{4-[(4aS,8aR)-4-(3,4-dimethoxyphenyl)-1-oxo-4a,5,6,7,8,8a-hexahydrophthalazin-2(1H)-yl]piperidin-1-yl}-1-oxo-3-phenylpropan-2-yl]-5H-pyrrolo[3,2-d]pyrimidine-7-carboxamide]"

# Second part, the molecule before the results:
Structure (SMILES),IC50 [1],IC50 [2]
"COc1ccc(C2=NN(C3CCN(C(=O)[C@@H](C)NC(=O)c4c[nH]c5c(-c6c(OCC7CC7)ccc7c6OCO7)ncnc45)CC3)C(=O)C(C)(C)C2)cc1OC [Example 111, 4-[5-(cyclopropylmethoxy)-1,3-benzodioxol-4-yl]-N-[(2R)-1-{4-[3-(3,4-dimethoxyphenyl)-5,5-dimethyl-6-oxo-5,6-dihydropyridazin-1(4H)-yl]piperidin-1-yl}-1-oxopropan-2-yl]-5H-pyrrolo[3,2-d]pyrimidine-7-carboxamide]",1 to 10 nM,1 to 10 nM
"COc1ccc(C2=NN(C3CCN(C(=O)[C@@H](Cc4ccc(C(C)(C)C)cc4)NC(=O)c4c(C)[nH]c5c(-c6c(OCC7CC7)ccc7c6OCO7)ncnc45)CC3)C(=O)[C@@H]3CCCC[C@H]23)cc1OC [Example 46, N-[(2R)-3-(4-tert-butylphenyl)-1-{4-[(4aS,8aR)-4-(3,4-dimethoxyphenyl)-1-oxo-4a,5,6,7,8,8a-hexahydrophthalazin-2(1H)-yl]piperidin-1-yl}-1-oxopropan-2-yl]-4-[5-(cyclopropylmethoxy)-1,3-benzodioxol-4-yl]-6-methyl-5H-pyrrolo[3,2-d]pyrimidine-7-carboxamide]",1 to 10 nM,1 to 10 nM
"COc1ccc(C2=NN(C3CCN(C(=O)C[C@@H](Cc4ccccc4)NC(=O)c4c[nH]c5c(-c6c(OCC7CC7)ccc7c6OCO7)ncnc45)CC3)C(=O)[C@@H]3CCCC[C@H]23)cc1OC [Example 77, 4-[5-(cyclopropylmethoxy)-1,3-benzodioxol-4-yl]-N-[(2R)-4-{4-[(4aS,8aR)-4-(3,4-dimethoxyphenyl)-1-oxo-4a,5,6,7,8,8a-hexahydrophthalazin-2(1H)-yl]piperidin-1-yl}-4-oxo-1-phenylbutan-2-yl]-5H-pyrrolo[3,2-d]pyrimidine-7-carboxamide]",1 to 10 nM,1 to 10 nM
"COc1ccc(C[C@H](NC(=O)c2c[nH]c3c(-c4c(OCC5CC5)ccc5c4OCO5)ncnc23)C(=O)N2CCC(N3N=C(c4ccc(OC)c(OC)c4)[C@H]4CCCC[C@H]4C3=O)CC2)cc1OC [Example 25, 4-[5-(cyclopropylmethoxy)-1,3-benzodioxol-4-yl]-N-[(2S)-3-(3,4-dimethoxyphenyl)-1-{4-[(4aS,8aR)-4-(3,4-dimethoxyphenyl)-1-oxo-4a,5,6,7,8,8a-hexahydrophthalazin-2(1H)-yl]piperidin-1-yl}-1-oxopropan-2-yl]-5H-pyrrolo[3,2-d]pyrimidine-7-carboxamide]",1 to 10 nM,1 to 10 nM
"COc1ccc(C2=NN(C3CCN(C(=O)CNC(=O)c4c[nH]c5c(-c6c(OCC7CC7)ccc7c6OCO7)ncnc45)CC3)C(=O)C(C)(C)C2)c2c1OC(C)(C)C2 [Example 117, 4-[5-(cyclopropylmethoxy)-1,3-benzodioxol-4-yl]-N-(2-{4-[3-(7-methoxy-2,2-dimethyl-2,3-dihydro-1-benzofuran-4-yl)-5,5-dimethyl-6-oxo-5,6-dihydropyridazin-1(4H)-yl]piperidin-1-yl}-2-oxoethyl)-5H-pyrrolo[3,2-d]pyrimidine-7-carboxamide]",1 to 10 nM,1 to 10 nM
"COc1ccc(C2=NN(C3CCN(C(=O)[C@@H](Cc4ccc(C)cc4)NC(=O)c4c[nH]c5c(-c6c(OCC7CC7)ccc7c6OCO7)ncnc45)CC3)C(=O)[C@@H]3CCCC[C@H]23)cc1OC [Example 21, 4-[5-(cyclopropylmethoxy)-1,3-benzodioxol-4-yl]-N-[(2R)-1-{4-[(4aS,8aR)-4-(3,4-dimethoxyphenyl)-1-oxo-4a,5,6,7,8,8a-hexahydrophthalazin-2(1H)-yl]piperidin-1-yl}-3-(4-methylphenyl)-1-oxopropan-2-yl]-5H-pyrrolo[3,2-d]pyrimidine-7-carboxamide]",1 to 10 nM,< 1 nM
"COc1ccc(C2=NN(C3CCN(C(=O)[C@@H](Cc4ccc(N5CCC5=O)cc4)NC(=O)c4c[nH]c5c(-c6c(OCC7CC7)ccc7c6OCO7)ncnc45)CC3)C(=O)[C@@H]3CCCC[C@H]23)cc1OC [Example 112, 4-[5-(cyclopropylmethoxy)-1,3-benzodioxol-4-yl]-N-{(2R)-1-{4-[(4aS,8aR)-4-(3,4-dimethoxyphenyl)-1-oxo-4a,5,6,7,8,8a-hexahydrophthalazin-2(1H)-yl]piperidin-1-yl}-1-oxo-3-[4-(2-oxoazetidin-1-yl)phenyl]propan-2-yl}-5H-pyrrolo[3,2-d]pyrimidine-7-carboxamide]",< 1 nM,< 1 nM
"COc1ccc(C2=NN(C3CCN(C(=O)[C@@H](Cc4ccccc4)NC(=O)c4c[nH]c5c(-c6c(OCC7CC7)ccc7c6OCO7)ncnc45)CC3)C(=O)C(C)(C)C2)cc1OC [Example 67, 4-[5-(cyclopropylmethoxy)-1,3-benzodioxol-4-yl]-N-[(2R)-1-{4-[3-(3,4-dimethoxyphenyl)-5,5-dimethyl-6-oxo-5,6-dihydropyridazin-1(4H)-yl]piperidin-1-yl}-1-oxo-3-phenylpropan-2-yl]-5H-pyrrolo[3,2-d]pyrimidine-7-carboxamide]",< 1 nM,1 to 10 nM
"COc1ccc(C2=NN(C3CCN(C(=O)[C@H](NC(=O)c4c[nH]c5c(-c6c(OCC7CC7)ccc7c6OCO7)ncnc45)C4CCCCC4)CC3)C(=O)[C@@H]3CCCC[C@H]23)cc1OC [Example 72, N-[(1R)-1-cyclohexyl-2-{4-[(4aS,8aR)-4-(3,4-dimethoxyphenyl)-1-oxo-4a,5,6,7,8,8a-hexahydrophthalazin-2(1H)-yl]piperidin-1-yl}-2-oxoethyl]-4-[5-(cyclopropylmethoxy)-1,3-benzodioxol-4-yl]-5H-pyrrolo[3,2-d]pyrimidine-7-carboxamide]",< 1 nM,1 to 10 nM
"COc1ccc(C2=NN(C3CCN(C(=O)[C@@H](Cc4ccc(C)cc4)NC(=O)c4c(C)[nH]c5c(-c6c(OCC7CC7)ccc7c6OCO7)ncnc45)CC3)C(=O)[C@@H]3CCCC[C@H]23)cc1OC [Example 15, 4-[5-(cyclopropylmethoxy)-1,3-benzodioxol-4-yl]-N-[(2R)-1-{4-[(4aS,8aR)-4-(3,4-dimethoxyphenyl)-1-oxo-4a,5,6,7,8,8a-hexahydrophthalazin-2(1H)-yl]piperidin-1-yl}-3-(4-methylphenyl)-1-oxopropan-2-yl]-6-methyl-5H-pyrrolo[3,2-d]pyrimidine-7-carboxamide]",< 1 nM,1 to 10 nM
